Source: paper PMC8597046, “Use of Mixture Dosing and Nonlinear Mixed Effect Modeling of Eight Environmental Contaminants in Rabbits to Improve Extrapolation Value of Toxicokinetic Data” (Environmental Health Perspectives, 2021)

How the values were obtained:
[1] = TK assay, oral mixture dosing: serum concentrations and noncompartmental analysis (sparse data); details: female, rabbit, in vivo, po; for concentration at 23.98 h: rabbit 15, 23.98 h; for concentration at 671.96 h: rabbit 23, 671.96 h; for concentration at 71.96 h: rabbit 18, 71.96 h; for concentration at 168.02 h: rabbit 19, 168.02 h; for concentration at 0.57 h: rabbit 22, 0.57 h
Method: The experiment was carried out on thirty 10-wk old female New Zealand white rabbits (INRA 1777 line) weighing 2.37±0.14kg . […] Blood samples were taken at the designated time points post IV and oral administration: 15 min, 30 min, 1 h, 2 h, 4 h, 8 h, 12 h, 24 h, 3 d, 7 d, and 28 d from groups of 3 or 6 rabbits at each sampling time. Each rabbit was sampled 3 times and 3 rabbits were sampled at each sampling time, except at 30 min post administration, when 6 samples were collected to provide a sufficient blood volume for assaying the compounds. The doses and assay time points were selected to allow the calculation of TK parameters (Table 1) based on preliminary TK data. Residual concentrations of the compounds, and their possible evolution over time, were determined by sampling six entirely untreated rabbits during the TK study on the day of drug administrations, then 14 d and 28 d later.
The volume administered was adjusted to the animal’s body weight (BW) recorded the day before.
Intravenous administrations were performed via an indwelling catheter (22G Terumo, 0.9×25mm ) just after its insertion into an ear vein. […] For oral administrations, the mixture of all compounds ( 4mL/kg ) was deposited directly in the mouth of rabbits using a catheter (22G BD Insyte 22G, 0.9×25mm ). Prior to the study, the rabbits had been trained to gradually swallow water and then corn oil.
Blood samples were collected from the auricular artery using a 20 G needle ( 0.9×25mm ) and a dry tube. The first two blood samples were 8–10mL in volume, whereas a large volume (about 20mL ) was obtained antemortem immediately after electrical stunning (95LX rabbit stunner; Burdis), followed by exsanguination.
Serum concentration-time profiles of the different compounds were first analyzed using a noncompartmental approach (NCA) involving a sparse data option. Sparse data methodology consists of calculating TK parameters based on the mean profile of all the subjects in the dataset and is appropriate when a rich data series cannot be obtained, as in the present experiment ([FDA 1999]). The area under the concentration time curve ( AUC0−tlast ) and the area under the first moment curve ( AUMC0−tlast ) from dosing time ( t=0 ) to the time of the last measurable concentration were calculated using the linear trapezoidal rule after IV and oral dosing. The area under the serum concentration time curve from dosing time to infinity ( AUC0−inf ) was obtained by adding to AUC0−tlast the area extrapolated from the time of the last measurable concentration to infinity by dividing the last quantifiable serum concentration by the slope of the terminal phase ( λZ ), as estimated by linear regression using the best fit option of Phoenix®.
The clearance (CL) and apparent clearance (CL_F) were respectively estimated after IV and oral administrations by dividing the administered dose by the AUC0−inf calculated for each analyte.
The terminal half-life (HL) was estimated with Equation 1: (1) HL=0.69315/λZ where λz is the slope of the terminal phase.
The oral bioavailability (F) was estimated using Equation 2: (2) F=AUCvo0−tlast×Doseiv/AUCiv0−tlast×Dosevo, where AUCiv0−tlast and AUCvo0-tlast are the values of AUC0−tlast obtained after IV and oral dosing, respectively, and Doseiv and Dosevo are the IV and oral doses.

[2] = Chronic exposure: daily oral mixture for 17 wk, steady-state serum concentrations; details: female, New Zealand white (INRA 1777 line), rabbit, in vivo, po
Method: The objective of this preliminary experiment was to check the ability of our approach to determine the loading and maintenance doses of the eight compounds to be administered simultaneously by oral route to reproduce in female rabbits targeted serum concentrations. The experiment was carried out on thirty-two 2-wk old female New Zealand white rabbits (INRA 1777 line) randomly allocated to a treatment and control groups of 16 rabbits weighing 309±45g and 298±62g , respectively. The treated rabbits were orally administrated a mixture of the eight compounds at a dosage corresponding to the sum of the loading and daily maintenance doses followed by daily administrations of the maintenance dose for 17 wk (see the “Estimation of the doses” section). The control group was orally administrated the vehicle for the same duration.
The volume of the maintenance dosing solution ( 1mL/kg ) was weekly adjusted to the mean BW estimated from the known pattern of growth of the INRA 1777 rabbit line. Oral dosing and antemortem blood sampling were performed as previously described.
Blood samples were left to clot for about 20–30 min at ambient temperature and centrifuged for 20 min at 3,000×g at 25°C. The separated serum was stored in glass tubes at −20°C until assayed.

[3] = Estimation of loading and daily maintenance doses and NLME model simulations; parameters: species or system female rabbits; details: oral; for Computed maintenance dose: daily; for Computed maintenance dose / Computed loading dose: scaled to the targeted CSS of Table 6; for Daily maintenance dose: to maintain serum concentration of 1 ng/mL, daily CL×Css/F; for Daily maintenance dose / Loading dose: DEHP dose for MEHP in serum; for Loading dose: to rapidly attain serum concentration of 1 ng/mL, Vss×Css/F
Method: The ultimate goal of this TK investigation was to compute a dosage regimen that allowed targeted steady-state serum concentrations to be attained rapidly for a planned TK/TD trial on the reprotoxic effect of a mixture of environmental contaminants in female rabbits. […] With that in mind, the loading and the daily maintenance doses of each compound were evaluated using Equations 12 and 13, respectively.
This risk was also the reason why the NLME model was employed to simulate the time development of the amounts of compounds in the central and peripheral compartments following administration of the daily maintenance dose of each compound over the same duration.
The loading and maintenance doses computed to ensure a nominal CSS of 1 ng/mL were scaled to determine the doses to be administrated by oral route to female rabbits to maintain the targeted CSS .

[4] = New Zealand white (INRA 1777 line)
[5] = New Zealand white (INRA 1777 line), Serum concentration, oral, rabbit 13, […], MEHP after oral DEHP
[6] = New Zealand white (INRA 1777 line), Serum concentration, oral, rabbit 14, […], MEHP after oral DEHP
[7] = New Zealand white (INRA 1777 line), Serum concentration, oral, MEHP after oral DEHP
[8] = New Zealand white (INRA 1777 line), Serum concentration, rabbit 21, 168.00 h
[9] = New Zealand white (INRA 1777 line), Serum concentration, rabbit 22, 672.02 h
[10] = New Zealand white (INRA 1777 line), Serum concentration
[11] = New Zealand white (INRA 1777 line), Serum concentration, rabbit 24, 672.02 h
[12] = New Zealand white, Serum concentration, oral, rabbit 16, 72.00 h, MEHP after oral DEHP
[13] = New Zealand white, Serum concentration, oral, rabbit 17, 72.00 h, MEHP after oral DEHP
[14] = New Zealand white, Serum concentration, oral, MEHP after oral DEHP
[15] = New Zealand white, Serum concentration
[16] = New Zealand white, Serum concentration, rabbit 20, 168.00 h
[17] = New Zealand white (INRA 1777 line), Serum concentration, rabbit 23, 0.55 h
[18] = New Zealand white (INRA 1777 line), Serum concentration, rabbit 24, 0.55 h

| Compound | AUC(0-inf) [1, 4] [µM·h] | CL/F [1, 4] [mL/min/kg] | Cmax [1, 4] [nM] | MRT [1, 4] [h] | Tmax [1, 4] [h] | Vd/F [1, 4] [L/kg] | bioavailability [1, 4] [%] | half-life [1, 4] [h] | concentration at 24 h [1, 5] [nM] | concentration at 24 h [1, 6] [nM] | concentration at 23.98 h [1, 7] [nM] | concentration at 168 h [1, 8] [nM] | concentration at 672.02 h [1, 9] [nM] | concentration at 671.96 h [1, 10] [nM] | concentration at 672.02 h [1, 11] [nM] | concentration at 72 h [1, 12] [nM] | concentration at 72 h [1, 13] [nM] | concentration at 71.96 h [1, 14] [nM] | concentration at 168.02 h [1, 15] [nM] | concentration at 168 h [1, 16] [nM] | also measured |
| --- | --- | --- | --- | --- | --- | --- | --- | --- | --- | --- | --- | --- | --- | --- | --- | --- | --- | --- | --- | --- | --- |
| O=C(O)C(F)(F)C(F)(F)C(F)(F)C(F)(F)C(F)(F)C(F)(F)C(F)(F)F [PFOA, perfluorooctanoic acid] | 169 | 0.0953 | 9070 | 25.9 | 4.05 | 0.64 | > 100 | 77.6 | 2510 | 1530 | 2340 | 9.3 | 0.5 | 0.26 | 0.49 | 110 | 230 | 78 | 32 | 5 | concentration at 4.3 h ([1]; New Zealand white (INRA 1777 line), Serum concentration, oral, rabbit 13, 4.30 h, MEHP after oral DEHP): 6040 nM; concentration at 0.37 h ([1]; New Zealand white (INRA 1777 line), Serum concentration, oral, rabbit 14, 0.37 h, MEHP after oral DEHP): 4790 nM; concentration at 4.17 h ([1]; New Zealand white (INRA 1777 line), Serum concentration, oral, rabbit 14, 4.17 h, MEHP after oral DEHP): 6700 nM; concentration at 4.05 h ([1]; New Zealand white (INRA 1777 line), Serum concentration, oral, rabbit 15, 4.05 h, MEHP after oral DEHP): 9070 nM; concentration at 12 h ([1]; New Zealand white (INRA 1777 line), Serum concentration, oral, rabbit 21, 12.00 h, MEHP after oral DEHP): 3940 nM; concentration at 0.55 h ([1]; New Zealand white, Serum concentration, oral, rabbit 16, 0.55 h, MEHP after oral DEHP): 2520 nM; concentration at 0.53 h ([1]; New Zealand white, Serum concentration, oral, rabbit 17, 0.53 h, MEHP after oral DEHP): 2350 nM; concentration at 0.55 h ([1]; New Zealand white, Serum concentration, oral, rabbit 18, 0.55 h, MEHP after oral DEHP): 4200 nM; concentration at 12 h ([1]; New Zealand white, Serum concentration, oral, rabbit 19, 12.00 h, MEHP after oral DEHP): 4880 nM; concentration at 12 h ([1]; New Zealand white, Serum concentration, oral, rabbit 20, 12.00 h, MEHP after oral DEHP): 3200 nM; concentration at 17 wk [2]: 43 ± 9.4 ng/mL; Computed maintenance dose [3]: 9.5 µg/kg; Computed loading dose [3]: 10 µg/kg; Daily maintenance dose [3]: 0.18 µg/kg; Loading dose [3]: 0.19 µg/kg |
| Brc1ccc(Oc2ccc(Br)cc2Br)c(Br)c1 [BDE-47, 2,2′,4,4′-tetrabromodiphenyl ether] | 79.5 | 5 | 640 | 258 | 24 | 116 | 78 | 267 | 770 | 510 | 300 | 110 | 17 | 27 | 30 | 160 | 210 | 300 | 92 | 120 | concentration at 0.57 h [1, 10]: 12 nM; concentration at 0.55 h [1, 17]: 33 nM; concentration at 0.55 h [1, 18]: 110 nM; concentration at 17 wk [2]: 0.16 ± 0.058 ng/mL; Computed maintenance dose [3]: 1.3 µg/kg; Computed loading dose [3]: 7.5 µg/kg; Daily maintenance dose [3]: 8.4 µg/kg; Loading dose [3]: 47 µg/kg |
| Cl[C@H]1[C@H](Cl)[C@@H](Cl)[C@H](Cl)[C@@H](Cl)[C@@H]1Cl [β-HCH, β-hexachlorocyclohexane] | 67.1 | 1.73 | 297 | 369 | 24 | 47 | 55 | 314 | 390 | 200 | 190 | 99 | 13 | 30 | 43 | 94 | 160 | 180 | 88 | 89 | concentration at 0.57 h [1, 10]: 29 nM; concentration at 0.55 h [1, 17]: 73 nM; concentration at 0.55 h [1, 18]: 250 nM; concentration at 17 wk [2]: 4.3 ± 1.6 ng/mL; Computed maintenance dose [3]: 11 µg/kg; Computed loading dose [3]: 163 µg/kg; Daily maintenance dose [3]: 2.4 µg/kg; Loading dose [3]: 37 µg/kg |
